Assay results from US7405236B2, “Indole derivatives comprising an acetylene group” (Hoffman-La Roche Inc., priority 2004, dated 2008).

How the values were obtained:
Details in all cases: receptor binding, SPA
PPARα = target: T1, PPARα (Homo sapiens, UniProt Q07869); test: PPARα radioligand binding assay (scintillation proximity, GST-PPARα-LBD)
T1 construct: PPARα (aa 167 to 469); made in house; host or cells: E. coli BL21(pLysS)
T1 sequence (Q07869 167-468 limits assumed): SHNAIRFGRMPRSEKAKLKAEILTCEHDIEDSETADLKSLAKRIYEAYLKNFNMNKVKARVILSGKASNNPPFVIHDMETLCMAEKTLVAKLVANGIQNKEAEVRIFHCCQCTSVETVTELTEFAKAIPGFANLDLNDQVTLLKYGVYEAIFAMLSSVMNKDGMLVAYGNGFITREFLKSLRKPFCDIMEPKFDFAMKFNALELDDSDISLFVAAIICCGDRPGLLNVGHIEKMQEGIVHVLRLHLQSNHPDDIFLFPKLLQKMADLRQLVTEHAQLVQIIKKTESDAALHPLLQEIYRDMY
From the text: (§1) Background information on the performed assays can be found in: Nichols J S et al. “Development of a scintillation proximity assay for peroxisome proliferator-activated receptor gamma ligand binding domain”, (1998) Anal. Biochem. 257: 112-119.
(§2) Full-length cDNA clones for humans PPARδ and PPARα and mouse PPARγ were obtained by RT-PCR from human adipose and mouse liver cRNA, respectively, cloned into plasmid vectors and verified by DNA sequencing. Bacterial and mammalian expression vectors were constructed to produce glutathione-s-transferase (GST) and Gal4 DNA binding domain proteins fused to the ligand binding domains (LBD) of PPARδ (aa 139 to 442), PPARγ (aa 174 to 476) and PPARα (aa 167 to 469). To accomplish this, the portions of the cloned sequences encoding the LBDs were amplified from the full-length clones by PCR and then subcloned into the plasmid vectors. Final clones were verified by DNA sequence analysis. […]
(§3) PPARα receptor binding was assayed in TKE50 (50 mM Tris-HCl, pH 8, 50 mM KCl, 2 mM EDTA, 0.1 mg/ml fatty acid-free BSA and 10 mM DTT). […] All binding assays were performed in 96 well plates and the amount of bound ligand measured on a Packard TopCount using OptiPlates (Packard). Nonspecific binding was determined in the presence of 10^−4 M unlabelled compound. […]

PPARγ = target: T2, PPARγ (Mus musculus, UniProt P37238); test: PPARγ radioligand binding assay (scintillation proximity, GST-PPARγ-LBD)
T2 construct: PPARγ (aa 174 to 476); made in house; host or cells: E. coli BL21(pLysS)
T2 sequence (P37238 204-505): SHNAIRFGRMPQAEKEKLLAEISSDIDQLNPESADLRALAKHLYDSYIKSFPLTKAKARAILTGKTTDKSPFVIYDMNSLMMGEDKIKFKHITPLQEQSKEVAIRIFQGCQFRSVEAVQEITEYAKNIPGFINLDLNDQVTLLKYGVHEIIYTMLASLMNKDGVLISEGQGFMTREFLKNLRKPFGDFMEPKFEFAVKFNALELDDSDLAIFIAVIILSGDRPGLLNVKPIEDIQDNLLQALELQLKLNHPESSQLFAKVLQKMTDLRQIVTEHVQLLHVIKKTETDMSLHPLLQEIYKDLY
From the text: as §1, §2
as §3, with “PPARγ” for “PPARα”

PPARδ = target: T3, PPARδ (Homo sapiens, UniProt Q03181); test: PPARδ radioligand binding assay (scintillation proximity, GST-PPARδ-LBD)
T3 construct: PPARδ (aa 139 to 442); made in house; host or cells: E. coli BL21(pLysS)
T3 sequence (Q03181 139-441 limits assumed): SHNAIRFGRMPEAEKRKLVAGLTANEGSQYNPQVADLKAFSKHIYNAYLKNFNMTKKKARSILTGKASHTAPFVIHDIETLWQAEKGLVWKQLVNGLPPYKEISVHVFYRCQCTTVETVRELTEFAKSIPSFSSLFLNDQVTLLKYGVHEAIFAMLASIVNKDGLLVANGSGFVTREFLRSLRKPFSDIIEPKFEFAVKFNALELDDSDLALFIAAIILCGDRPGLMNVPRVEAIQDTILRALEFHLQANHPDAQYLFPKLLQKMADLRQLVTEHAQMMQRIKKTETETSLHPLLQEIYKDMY
From the text: as §1, §2
PPARδ receptor binding was assayed in HNM10 (50 mM Hepes, pH 7.4, 10 mM NaCl, 5 mM MgCl2, 0.15 mg/ml fatty acid-free BSA and 15 mM DTT). […] Radioligand was added and the reaction incubated at RT for 1 h and scintillation proximity counting performed in the presence of test compounds was determined. All binding assays were performed in 96 well plates and the amount of bound ligand was measured on a Packard TopCount using OptiPlates (Packard). […]

| Structure (SMILES) | IC50 (PPARα) [µM] | IC50 (PPARγ) [µM] | IC50 (PPARδ) [µM] |
| --- | --- | --- | --- |
| O=C(O)Cn1ccc2ccc(OCCCC#Cc3cccc(OC(F)(F)F)c3)cc21 [Example 2, {6-[5-(3-Trifluoromethoxy-phenyl)-pent-4-ynyloxy]-indol-1-yl}-acetic acid] | 0.317 | > 10 | 0.149 |
| O=C(O)Cn1ccc2cc(OCCCC#Cc3ccc(OC(F)(F)F)cc3)ccc21 [Example 6, {5-[5-(4-Trifluoromethoxy-phenyl)-pent-4-ynyloxy]-indol-1-yl}-acetic acid] | 0.074 | > 10 | 0.301 |
